The values that follow come from a melting point compilation (Tetko et al.; mined from patent text by program, amines drawn as free bases though some values may be those of a salt).

Where only a bound is given, the exact number is not on record here.

The melting point is the temperature, or range, at which the solid turns liquid. `Cc1c(C(=O)Nc2ccc(N3CCC(N4CCOCC4)CC3)c(C#N)c2)cnn1-c1ccc(I)cc1` had a melting point of 280 °C. `COc1cccc(CSc2nnc(-c3ccc4c(c3)CCO4)o2)c1` yielded a melting point of 91 to 93 °C. Compound `COc1cc(Cc2cnc(N)nc2N)c2c(c1OC)OC(C)CC2` (centres undefined) came in with a melting point of 239 to 240 °C.

In the case of `Cn1cc(C#N)c(Br)c1Br`, the melting point lay in the range of 138 to 139 °C. For the compound `CCCn1c(=O)c2[nH]c(C34CC5CC(CC(O)(C5)C3)C4)nc2n(CCC)c1=O`, the melting point lay in the range of 213 to 214 °C. As for `Cn1nc2c(-c3ccc(Cl)cc3Cl)cccc2c1C=CC#N`, the figure is 258 to 259 °C; as for `COC(=O)[C@H](O)[C@@H](N)c1ccccc1`, 101 °C.

For `CC(C)(C)Sc1c(CC(C)(C)C(=O)O)n(Cc2ccc(Cl)cc2)c2ccc(OCc3ccccn3)cc12`, the melting point lay in the range of 189 to 190 °C. As to `CCOC(=O)c1cccc2c1Cc1c-2[nH]c2ccc(Cl)cc12`, the melting point lay within 202 to 204 °C.

`CC(C(=O)O)c1ccc(C(F)(F)F)cc1` (centres undefined) showed a melting point of 56 to 58 °C. To `N#CC(=NOCCn1cncn1)C(N)=O` belongs 137 °C; to `Clc1ccc(C(=Cn2cnnn2)OCc2ccccc2)c(Cl)c1`, 92 °C; to `CCOC(=O)C(Cc1cc(C)cc(OC(F)(F)C(F)F)c1)C(=O)c1ccc(F)cc1` (centres undefined), 56 to 57 °C. For the compound `C=CCc1cc(C=O)ccc1O`, the melting point was found to be 66 °C. Turning to `Cc1nc(C)nc(NC(=O)NS(=O)(=O)c2ccccc2C)n1`, the melting point lay in the range of 141 to 145 °C. To `COCc1cc(Cl)n2nc(SC)c(S(=O)(=O)c3ccccc3)c2n1` belongs 194 to 197 °C; to `CCCCCCc1cc2c(s1)-n1c(C)nnc1C(C)N=C2c1ccccc1C` (centres undefined), 83 to 85 °C; to `O=C(O)CCCNC(=O)c1ccccc1NC(=O)c1ccccc1Cl`, 110 to 112 °C.

In the case of `O=C(CN1CCC(Cc2ccc(F)cc2)CC1)Nc1cccc([N+](=O)[O-])c1`, the melting point was 118 to 120 °C.

Compound `CCn1nc(C)c(-c2ccc3c(c2)NC(=O)CO3)c1-c1ccc(F)cc1` came in with a melting point of 161 °C.

For the compound `CCOC(=O)C1(C(=O)Nc2ccc(Cl)cc2CC)CC1`, the melting point lay in the range of 77 to 80 °C. `N#Cc1ccc(-c2cc(=O)c3cccnc3o2)cc1` showed a melting point of 250 to 252 °C.

Consider `CC(=O)N1N=C(c2ccc([N+](=O)[O-])cc2)c2cc(Br)ccc2CC1C` (centres undefined), for which the melting point fell in the range of 228 to 230 °C. `CC(C)(C(=O)O)n1c(=O)[nH]c2ccc(Cl)cc2c1=O`: the melting point fell in the range of 256 to 259 °C. To `COC(=O)C1=C(C)NC(C(C)(OC)OC)=C(C(=O)OC)C1c1ccccc1Cl` (centres undefined) belongs 145 to 146 °C; to `CC(C)(CO)NC(=O)c1nn(-c2ccc(F)cc2)c2c1C1CCC2CC1`, 165 to 168 °C.

Turning to `CCOC(=O)/C(=N\OC(C)(C)C)c1csc(N)n1`, the melting point lay in the range of 111 to 112 °C. As for `CC(C)(C)OC(=O)N1CCc2ccc3ccn(CCO)c3c2CC1`, the figure is 226 to 229 °C; as for `CC(C)(C)OC(=O)N[C@H](CC(=O)OCc1ccccc1)C(=O)N[C@H](CO)c1ccccc1`, 117 to 118 °C. `Cc1cnc(-c2ccc(C(F)(F)F)cc2)nc1Cl` came in with a melting point of 110 to 112 °C.

As to `CNC(=O)c1cccc(C)c1Nc1nc(Nc2ccc3c(c2)N(CCOC)C(=O)CCC3)ncc1Cl`, the melting point was 185 to 187 °C. As for `Cn1c(=O)cc(CBr)c2ccccc21`, the figure is 188 to 190 °C; as for `COc1cc(CNC(=O)c2ccccc2)cc(OC)c1OC`, 113 to 115 °C; as for `CCC1(C)Cc2ccc(C)cc2C1=O` (centres undefined), 25.5 to 27 °C. `O[C@@H]1C=C[C@H](n2cnc3c(NCC(c4ccccc4)c4ccccc4)ncnc32)C1` (racemic) yielded a melting point of 165 to 169 °C.

`COC(=O)C1=C(CF)NC(C)=C(C(=O)OC(C)C)C1c1cccc(Cl)c1Cl` (centres undefined) yielded a melting point of 148 to 149 °C.

Consider `CCOC(=O)N1CCC(=C2c3cc(F)ccc3CCc3cccnc32)CC1`, for which the melting point fell in the range of 112 to 114 °C.

In turn, `COc1ccc(-c2nc(C(C)=O)cn2-c2ccc(OC)cc2)cc1` came in with a melting point of 116 to 117 °C.

Turning to `COc1ccc2ccc(NC(=O)c3cccc(OC(C)=O)c3)nc2n1`, the melting point was determined as 172 °C. To `Cc1cc2c(C(=O)C3=C(O)C4CCC(C4)C3=O)ccc(S(C)(=O)=O)c2o1` (centres undefined) belongs 258 to 259 °C; to `CC(=O)NC(=O)C(SCc1ccccc1)C(c1ccccc1)(c1ccccc1)c1ccccc1` (centres undefined), 184 to 186 °C; to `CCOC(=O)C(C)NC(=O)N1CCc2cc(S(=O)(=O)N3CCN(c4cccc(Cl)c4)CC3)ccc21` (centres undefined), 167 to 168 °C.

The compound `Cc1ccc(C2CCN(C(=O)CCC(=O)c3ccc4c(c3)CCN(C(=O)C(F)(F)F)CC4)CC2)cc1` gave a melting point of 132 to 134 °C. To `COc1cc2c(I)cn(C)c2cc1OC` belongs 80 to 90 °C; to `CC(=O)Nc1nnc2c3c(c(N4CCCCC4)nn12)CCCC3`, 214 to 216 °C. As for `CC(C)(C)c1ccc(C(=O)Nc2cn3nc(-c4cnn(CCO)c4)ccc3n2)cc1`, the figure is 226 to 229 °C. `CCc1ccc(NCc2cc(OC)c(OC)c(OC)c2)cc1` returned a melting point of 64 to 66 °C. Turning to `CC1(C)CCC(C)(C)c2cc(-c3cc(-c4ccc(C(N)=O)cc4-c4ccc(O)cc4)ccc3-c3ccccc3)ccc21`, the melting point is 231 °C. As for `O=C(O)CCc1oc(N2CCCC2)nc1-c1ccc(Cl)cc1`, the figure is 199 to 200 °C; as for `Clc1ccc(Cl)c(COC2COC(c3ccccc3)OC2)c1Cl` (centres undefined), 93.5 to 94 °C; as for `CCOC(=O)c1cc(=O)nc2n1-c1ccc(C)cc1OC2`, 136 to 137 °C. As to `COc1ccc(/C=C/C(=O)CC(=O)/C=C/c2ccc(O)cc2)cc1O`, the melting point was 207 to 210 °C.

For `CC(C)(C)OC(=O)NC1CC=CC1`, the melting point lay within 68 to 70 °C. As for `CN1C(=O)c2cc(Cl)ccc2N(C(=O)CCN2CCCC2)c2ccccc21`, the melting point lay within 118 to 120 °C.

`CC(C)n1nc(-c2nc(C#N)c(C#N)nc2-c2ccccc2Br)ccc1=O` yielded a melting point of 160 to 161 °C.

Consider `O=C(O)c1ccc(CN2C(=O)c3ccc(C(=O)O)cc3C2=O)cc1`, for which the melting point was 365 to 366 °C. With `CCN1c2ncc(CCc3cnc4ccccc4c3)cc2C(=O)N(C)c2ccc(F)nc21`, the melting point was in the range of 154 to 156 °C. For `CC(=CC(=O)c1ccccc1)NC(Cc1ccc(-c2cccc(CNCC(=O)c3ccccc3)c2)cc1)C(=O)O` (centres undefined), the melting point stood at 136 °C.

`CC1c2cc(C(C)(C)C)cc(C(C)(C)C)c2O[Si](C)(C)Oc2c1cc(C(C)(C)C)cc2C(C)(C)C` had a melting point of 171 to 177 °C. As for `Cc1ccc(C=CC(=O)C2CC2)cc1`, the figure is 75 to 76 °C; as for `COC(=O)c1ccn2cc(Cc3cccc(F)c3C)c(-c3ccccc3)c2c1`, 55 °C; as for `CCCCC1(COC(=O)C(C)(C)C)C(=O)N(c2ccccc2)N(c2ccccc2)C1=O`, 116 to 117 °C. As for `CCCCCCCCOc1ccc(-c2nc(-c3ccccc3)c(-c3ccccc3)[nH]2)cc1`, the figure is 178 °C; as for `COC(=O)c1ncn(CCCc2ccc(OCc3coc(/C=C/c4ccccc4)n3)cc2)c1C(=O)OC`, 85 to 86 °C. With `CCN(CC)CCNC(=S)N(CCS(=O)(=O)c1ccccc1)C(C)C`, the melting point fell in the range of 81.5 to 82.5 °C.

The compound `CN(C)C(=O)c1cccnc1SCc1ccccc1` registered a melting point of 61 to 63 °C.

On to `CNC(=O)ON=C1OCCOC1(C)C`, for which the melting point fell in the range of 144 to 146 °C. As for `Cc1nc(N2CCN(Cc3ccc(OC(F)F)cc3)C2=O)sc1C(=O)NCc1cccnc1`, the melting point lay in the range of 166 to 167 °C. To `CCC(CC)(CCl)c1cc(Cl)nnc1Cl` belongs 45 to 47 °C; to `NNc1ccc(OCc2ccccc2)cc1`, 101 to 103 °C. To `O=[N+]([O-])c1ccc2[nH]c(/C=C/c3ccncc3)nc2c1` belongs above 280 °C; to `Cn1c2ccccc2c2c(C(=O)C(F)(F)F)csc21`, 138 to 140 °C. To `Cc1ccc2c(c1)C(C(=S)Nc1c(C(C)C)cccc1C(C)C)c1ccccc1CO2` (centres undefined) belongs 140 °C; to `C#CCOc1cc(F)ccc1[N+](=O)[O-]`, 38 to 39 °C; to `O=C(Cl)c1cc(Br)c(C(=O)Cl)cc1Br`, 80 to 82 °C. Take `O=C(O)Cc1c(C(=O)O)c2cc(Oc3ccc(OC(F)(F)F)cc3)ccc2n1-c1ccc(N2CCCCC2)cc1`: the melting point was above 200 °C. Take `O=C1c2ccccc2C(=O)N1CSc1nnnn1-c1ccccc1`: the melting point lay in the range of 146 to 147 °C. To `COc1ccc2c(n1)C1(CO2)C(=O)N(Cc2ccc(Cl)s2)c2ccccc21` (centres undefined) belongs 130 to 132 °C. To `Cc1cnc(N2CCN(CC[C@H]3CC[C@H](NC(=O)CC4CCOCC4)CC3)CC2)c2ccoc12` belongs 206 °C. Consider `O=C1C(=O)N2c3c(cccc31)OCC2c1ccccc1` (centres undefined), for which the melting point fell in the range of 169 to 171 °C. As for `NCCc1ccc(Nc2ncc3c(n2)-c2ccccc2C(c2cccc(Br)c2)C3)cc1` (centres undefined), the figure is 115 to 117 °C; as for `O=C1Cc2cc(F)ccc2N1CCCl`, 127 °C. As for `CCOC(=O)c1ccoc1COc1cc(-c2nn(C)c(OC(F)F)c2Cl)c(F)cc1Cl`, the figure is 59 to 61 °C; as for `Clc1ccc(-c2nc3ccccc3nc2Cl)c(Cl)c1`, 140 to 150 °C.

Compound `O=C1C2=C(CCCC2)C(=O)N1c1cc(CO)c(Cl)cc1F` gave a melting point of 135 to 137 °C. As for `O=C(Cn1c(-c2ccc(Cl)cc2)nc2cccnc21)c1ccccc1`, the melting point was 211 to 212 °C. To `Oc1ccc(-c2cn(-c3ccncc3)c(-c3ccc(F)cc3)n2)cc1` belongs 230 to 231 °C; to `c1ccc(C2=NC(c3ccccn3)(c3ccccn3)N=C2c2ccccc2)cc1`, 214 to 216 °C; to `COc1ccc2c3c(c(=O)oc2c1)CN(Cc1cccnc1)CC3`, 107 to 110 °C.
